Reference: PMC5428058, “Local delivery of novel MRTF/SRF inhibitors prevents scar tissue formation in a preclinical model of fibrosis” (Scientific Reports, 2017)

Columns and labels:
[1] = test system: human conjunctival fibroblasts; assay: fibroblast-populated collagen contraction assay (human); format: cell-based; settings: for IC50: human conjunctival fibroblasts in collagen type I matrix, 7 days
Protocol: We screened two candidate MRTF/SRF pathway inhibitors, CCG-222740 and CCG-203971, using detached three-dimensional fibroblast-populated collagen gels[56], [57]. Human or rabbit conjunctival fibroblasts were seeded in a collagen Type I matrix (First Link UK Ltd, Birmingham, UK) at a concentration of 0.7 × 10^4 cells/ml. The fibroblast-populated collagen gel mixture was cast into the wells of MatTek dishes (MatTek Corp, MI, USA). The gels were detached from the edges of the well and 2 ml of growth medium were added to each well with 5, 25, 50, 75, or 100 μM of CCG-222740 or CCG-203971 or 0.1% DMSO control. Digital photographs were obtained daily and lattice areas were measured using Image J software (http://rsb.info.nih.gov/ij/). The gel size at day 7 was assessed as a percentage of lattice area on day 0. Each experiment was performed as triplicate gels per condition and the experiment was repeated on three separate days.

[2] = test system: rabbit conjunctival tissue; assay: histologic analysis of bleb tissue after glaucoma filtration surgery; format: in vivo; settings: for expression of αSMA by cells in tissue sections / scar tissue formation (picrosirius red) compared to vehicle control: day 30; for newly laid extracellular matrix and collagen (Gomori's trichrome): day 30, vehicle versus treated
Protocol: We further evaluated the histologic differences after local delivery of CCG-222740 and CCG-203971. The white filtration tube was used as landmark and the plane of sectioning of the bleb area was performed 2 mm from the tube (black line in Fig. 5). Grading was performed using a modified system originally described by Shah et al.[34]. The left operated eyes were compared to the right non-operated eyes that were used as controls for the appearance of normal conjunctival tissue. The sections were graded using a scale of −4 to +4 (0 = same as control eye; 1 = 1–25% difference from control eye; 2 = 26–50% difference from control eye; 3 = 51–75% difference from control eye; 4 = >75% difference from control eye; prefix+, more than; prefix−, less than). Analysis was performed using the mean results in each treatment group.
The animals were sacrificed on day 30 and both eyes were enucleated. The eyes were fixed in formalin, embedded in paraffin, and sequential 4 μm tissue sections were cut.
The sections were stained with hematoxylin and eosin (for cellularity and inflammatory cells), Gomori’s trichrome (for collagen), picrosirius red (for degree of fibrosis and collagen deposition), and alpha-smooth muscle actin (αSMA) using a primary monoclonal mouse anti-human αSMA antibody (Clone 1A4; Dako, High Wycombe, UK) and a biotinylated secondary antibody (rabbit anti-mouse; Dako). All the left operated eyes were compared to the right non-operated eyes that were used as controls for the appearance of normal conjunctival tissue. The sections were graded using a modified grading system originally described by Shah et al.[34], with a scale of −4 to +4 according to the staining intensity. Grades were defined as 0 = same as control eye; 1 = 1–25% difference from control eye; 2 = 26–50% difference from control eye; 3 = 51–75% difference from control eye; 4 = >75% difference from control eye (prefix+, more than; prefix −, less than).

[3] = drug levels in aqueous, vitreous and serum by LC/MS; format: in vivo; settings: rabbit, day 30, 48 hours after the last subconjunctival dose
Protocol: All animals were carefully evaluated for any signs of ocular or systemic toxicity during the study. At day 30, 100 µl of aqueous, 1 ml of vitreous, and 1 ml of venous blood were sampled on the rabbit eyes receiving CCG-222740 or CCG-203971 or vehicle control. The venous blood samples were left to clot for 30 minutes at room temperature, spun at 4000 rpm for 15 minutes at 4 °C, and the serum was collected as the supernatant. Samples were extracted in acetonitrile and the levels of CCG-222740 and CCG-203971 were measured in the aqueous, vitreous, and serum using liquid chromatography/mass spectrometry (LC/MS) in the Metabolomics Core at Michigan State University (East Lansing, MI).

[4] = test system: human conjunctival fibroblasts; assay: cell viability assay (CellTiter 96 Aqueous one solution); format: cell-based; settings: for cell viability: 24 hours
Protocol: Human conjunctival fibroblasts were plated at 6.25 × 10^3 cells/well in 96-well plates (Falcon, Fisher Scientific), and treated with 1, 3, 10, 30 or 100 μM of CCG-222740 or CCG-203971 or 0.1% DMSO control for 24 hours. 20 μl of CellTiter 96 Aqueous one solution (Promega) were then added to each well containing the samples in 100 μl of culture medium. The plate was incubated for 1 hour at 37 °C and the absorbance was measured at 490 nm on a SpectraMax Plus 384 spectrophotometer (Molecular Devices, California, USA). Each experiment was carried out in triplicates for each condition and the experiment was repeated three times.

[5] = test system: ACTA2 and CTGF in human conjunctival fibroblasts; assay: MRTF/SRF target gene expression by qRT-PCR (human); format: cell-based; settings: 24 hours, 10% FCS
Protocol: (§1) Human or rabbit conjunctival fibroblasts were plated at 1 × 10^5 cells/well in 6-well plates (Falcon, Fisher Scientific). The next day, the fibroblasts were treated with 5, 10, 25, or 50 μM of CCG-222740 or CCG-203971 or 0.1% DMSO control in DMEM +10% FCS for 24 hours. The fibroblasts were then lysed for RNA extraction using the Sigma RNA isolation kit (Sigma-Aldrich), according to the manufacturer’s instructions. Reverse transcription was carried out using the Transcriptor First Strand cDNA Synthesis Kit (Roche), according to the manufacturer’s instructions. qRT-PCR reactions were performed using SYBR green reagents (Life Technologies) on an HT7900 Fast Real-Time PCR system (Applied Biosystems). The human exonic primer sequences were: ACTA2, 5′-[…]-3′, 3′-[…]-5′; CTGF, 5′-CAGAGTGGAGCGCCTGTT-3′, 3′-CTGCAGGAGGCGTTGTCA-5′; GAPDH, 5′-[…]-3′, 3′-[…]-5′. The rabbit exonic primer sequences were ACTA2, 5′- […]-3′, 3′- […]-5′; GAPDH, 5′-CGAGACACGATGGTGAAGG-3′, 3′-[…]-5′. All mRNA values were normalised relative to that of GAPDH. Each experiment was carried out in triplicates for each treatment group and the experiment was repeated three times.

[6] = test system: ACTA2 in rabbit conjunctival fibroblasts; assay: ACTA2 gene expression by qRT-PCR (rabbit); format: cell-based; settings: 24 hours
Protocol: as §1

| SMILES | IC50 [1] [µM] | expression of αSMA by cells in tissue sections [2] | scar tissue formation (picrosirius red) compared to vehicle control [2] | newly laid extracellular matrix and collagen (Gomori's trichrome) [2] | drug level in aqueous [3] | drug level in serum [3] | drug level in vitreous [3] | potency in collagen contraction relative to CCG-203971 ([1]; human conjunctival fibroblasts) | cell viability ([4]; 10 μM) [%] | cell viability ([4]; 30 μM) [%] | cell viability ([4]; 100 μM) [%] | cytotoxicity, comparison ([4]; human conjunctival fibroblasts) | expression of MRTF/SRF target genes ACTA2 and CTGF, comparison [5] | ACTA2 gene expression, comparison [6] |
| --- | --- | --- | --- | --- | --- | --- | --- | --- | --- | --- | --- | --- | --- | --- |
| O=C(Nc1ccc(Cl)cc1)C1CCCN(C(=O)c2cccc(-c3ccco3)c2)C1 (stereo not drawn) [CCG-203971] | 25 | significantly decreased the expression of αSMA | significant decrease in scar tissue formation | present to a greater degree in the vehicle-treated group compared to | below 20 nM | below 20 nM | below 20 nM |  |  |  |  |  |  |  |
| O=C(Nc1ccc(Cl)cc1)C1CN(C(=O)c2cccc(-c3ccco3)c2)CC(F)(F)C1 (stereo not drawn) [CCG-222740] | 5 | significantly decreased the expression of αSMA | significant decrease in scar tissue formation | present to a greater degree in the vehicle-treated group compared to | below 20 nM | below 20 nM | below 20 nM | five times more potent than CCG-203971 | 100 | 88 | 85 | less cytotoxic than CCG-203971 | more potent inhibitor of expression | decreased ACTA2 gene expression to a greater extent than CCG-203971 |
